As usually defined, the Cmax is the maximum level reached in the sampled fluid or tissue. As a reminder, the Tmax is the time from dosing to the highest level.

Results on one molecule are retold here after patent US12643913B2, “Mcl-1 inhibitor formulations” (AMGEN INC., priority 2020, dated 2026).

A short description of the data set: Pharmacokinetics after oral gavage to male beagle dogs with different pre-treatments (Amgen study 150528). Type of data set: in vivo. The settings on record: 3 mg/kg PO; for AUCt / Cl/F / Cmax / Tmax / T½: male beagle dogs. The protocol:
The pharmacokinetics of AMG 397 were assessed following oral administration to male beagle dogs as either a suspension of the crystalline hydrate form of AMG 397 or an amorphous suspension in 2% HPMC, 0.01% Tween 80. The full protocol is described in Amgen study number 150528. The goal of this study was to determine if the amorphous material would lead to increases in bioavailability and if variability in dosing could be reduced. In addition, oncology patients could be receiving acid-reducing agents as co-medication, so it is important to determine if exposure is reduced with elevated stomach pH and if an amorphous formulation of AMG 397 could overcome the drug-drug interaction (DDI). For the studies below, Form 1 is the crystalline hydrate form of AMG 397 and amorphous is the amorphous form of AMG 397.
Briefly, during each phase five male beagle dogs were assigned to each group of the study. All animals were fasted for at least eight hours prior to dosing and through the first four hours of blood sample collection for each phase. Food was returned within 30 minutes following collection of the last blood sample at the four-hour collection interval. Each animal in Phase 1, received a single oral (PO) gavage dose of the appropriate test article formulation as outlined in the study design Table 6. Oral gavage dosing formulations were continuously stirred throughout dosing. The gavage tube was rinsed with approximately 10 mL of tap water following dosing (prior to removal of the gavage tube). Following each study phase a 7-day washout period was allowed prior to the dosing of the next phase. The same five dogs were assigned to either group 1 or group 2 formulations for the duration of the study.
Test Article Administration: A total of 10 male beagle dogs were initially assigned to study. All animals were fasted for at least eight hours prior to dosing and through the first four hours of blood sample collection for each phase, where applicable (food will be returned within 30 minutes following collection of the last blood sample at the four hour collection interval, where applicable). Total fasting time […] 24 hours.
Each animal in Phase 1, Groups 1 and 2 received a single oral (PO) gavage dose of the appropriate test article formulation as outlined in the following study design table. Oral gavage dosing formulations was continuously stirred throughout dosing. The gavage tube was rinsed with approximately 10 mL of tap water following dosing (prior to removal of the gavage tube). No pre-treatment will be required for Phase 1.
After a 7-day washout period, each animal in Phase 2, Groups land 2 received a single oral (PO) gavage dose of the appropriate test article formulation as outlined in the following study design table. Oral gavage dosing formulations were continuously stirred throughout dosing. The gavage tube were rinsed with approximately 10 mL of tap water following dosing (prior to removal of the gavage tube). Two hours prior to dosing, each animal received two 20 mg (40 mg total) oral tablets of famotidine followed by a 10 mL dose of deionized water.
After another 7-day washout period, each animal in Phase 3, Groups land 2 received a single oral (PO) gavage dose of the appropriate test article formulation as outlined in the following study design table. Oral gavage dosing formulations were continuously stirred throughout dosing. The gavage tube was rinsed with approximately 10 mL of tap water following dosing (prior to removal of the gavage tube). Thirty minutes prior to dosing, each animal received an intramuscular dose of pentagastrin in phosphate buffered saline at a dose level of 0.006 mg/kg and a dose volume of 0.05 mL/kg.
After a final 7-day washout period, each animal in Phase 4, Groups 1 and 2 received a single oral (PO) gavage dose of the appropriate test article formulation as outlined in the following study design table. Oral gavage dosing formulations were continuously stirred throughout dosing. […]

[1] abbreviates: Phase 2, famotidine pre-treatment (stomach pH ~6.5).
Where [2] appears, read: Phase 3, pentagastrin pre-treatment (stomach pH ~2.0).
The mark [3] stands for this setting: Phase 4, pentagastrin pre-treatment + P-gp inhibitor GF120918.

On to `CO[C@]1(CN2CCN3CCCC[C@@H]3C2)/C=C/C[C@H](C)[C@@H](C)S(=O)(=O)NC(=O)c2ccc3c(c2)N(C[C@@H]2CC[C@H]21)C[C@@]1(CCCc2cc(Cl)ccc21)CO3` [AMG 397 Amorphous], for which, where the note is “Phase 1, no pre-treatment”, the AUCt was found to be 17.3 µM·h, the Cl/F was 6.7 mL/min/kg, the Cmax was 790 nM and the time of peak concentration (Tmax) turned out to be 3.1 h. Under “Phase 1, no pre-treatment”, the T½ amounted to 18.4 h. Under setting [1], the AUCt turned out to be 21.1 µM·h, the Cl/F was 3.67 mL/min/kg, the Cmax came to 900 nM and the time to peak (Tmax) is listed as 8.1 h. The T½ under setting [1] was determined as 19.7 h. Besides, under setting [2], the AUCt came out at 18 µM·h, the Cl/F came out at 4.33 mL/min/kg, the Cmax came out at 780 nM and the Tmax turned out to be 10.4 h. Moreover, the T½ under setting [2] amounted to 18.3 h. Besides, under setting [3], the AUCt was determined as 26.0 µM·h, the Cl/F turned out to be 4.33 mL/min/kg, the Cmax was found to be 950 nM and the Tmax is recorded as 12.4 h. Further, the T½ under setting [3] is listed as 16.5 h. The “Effect of stomach pH on exposure” value (beagle dogs) is “not affected by stomach pH”. In addition, the “Bioavailability relative to the crystalline hydrate form” value (stomach pH elevated, beagle dogs) is recorded as 3.4 fold. In addition, the “Bioavailability relative to the crystalline hydrate form” value (stomach pH low, beagle dogs) amounted to 1.6 fold.
